Measured values taken from article PMC7056318, “An algal enzyme required for biosynthesis of the most abundant marine carotenoids” (Science Advances, 2020).

Key:
Format in all cases: biochemical
[1] = target: T1, PtVDE (Phaeodactylum tricornutum, UniProt B7FUR6); experiment: HPLC de-epoxidase assay, dose-response
T1 construct: gene VDE
T1 sequence (B7FUR6 105-437): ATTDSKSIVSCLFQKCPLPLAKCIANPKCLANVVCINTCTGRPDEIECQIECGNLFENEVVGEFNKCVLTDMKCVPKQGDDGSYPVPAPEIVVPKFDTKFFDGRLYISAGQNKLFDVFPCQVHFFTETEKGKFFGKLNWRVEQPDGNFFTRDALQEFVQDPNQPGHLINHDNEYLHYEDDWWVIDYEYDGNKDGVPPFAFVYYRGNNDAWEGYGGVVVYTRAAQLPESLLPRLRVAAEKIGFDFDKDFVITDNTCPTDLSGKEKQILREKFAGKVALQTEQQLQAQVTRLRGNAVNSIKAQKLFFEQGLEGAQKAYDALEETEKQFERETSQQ

[2] = target: T2, PtVDL1 (Phaeodactylum tricornutum, UniProt B7G087); experiment: HPLC tautomerase assay, dose-response
T2 construct: gene VDL1
T2 sequence (B7G087 112-453): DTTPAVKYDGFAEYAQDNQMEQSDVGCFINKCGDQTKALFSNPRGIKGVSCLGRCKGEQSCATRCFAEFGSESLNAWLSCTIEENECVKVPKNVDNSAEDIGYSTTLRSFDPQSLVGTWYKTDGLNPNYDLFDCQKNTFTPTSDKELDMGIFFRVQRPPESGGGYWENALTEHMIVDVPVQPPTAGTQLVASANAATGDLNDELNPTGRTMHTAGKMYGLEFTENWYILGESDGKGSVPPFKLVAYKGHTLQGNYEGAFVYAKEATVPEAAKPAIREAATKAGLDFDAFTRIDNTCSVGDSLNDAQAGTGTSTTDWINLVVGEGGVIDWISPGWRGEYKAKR

[3] = target: T3, VDL1 from T. pseudonana (Thalassiosira pseudonana, UniProt B8C0W7); experiment: HPLC, conversion of violaxanthin to neoxanthin; details: pH 5.2, 20 °C, MGDG, 3 h
T3 construct: gene THAPSDRAFT_22076
T3 sequence (B8C0W7 103-423): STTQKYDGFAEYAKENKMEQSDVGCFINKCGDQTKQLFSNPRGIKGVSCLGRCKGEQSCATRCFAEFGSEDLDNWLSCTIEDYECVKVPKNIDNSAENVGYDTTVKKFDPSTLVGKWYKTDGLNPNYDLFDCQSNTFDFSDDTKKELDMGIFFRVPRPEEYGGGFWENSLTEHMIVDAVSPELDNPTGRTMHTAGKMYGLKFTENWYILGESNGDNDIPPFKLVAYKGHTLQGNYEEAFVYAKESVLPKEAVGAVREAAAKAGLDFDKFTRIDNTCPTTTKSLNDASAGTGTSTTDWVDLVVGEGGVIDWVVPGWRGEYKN

IC50 [1] | IC50 [2] | SMILES | HPLC, conversion of violaxanthin to neoxanthin [3]
0.68 mM | 73 mM | OC(CS)C(O)CS (stereo not drawn) [DTT] | –
– | – | CC(/C=C/C=C(C)/C=C/[C@@]12O[C@]1(C)C[C@@H](O)CC2(C)C)=C\C=C\C=C(C)\C=C\C=C(C)\C=C\[C@@]12O[C@]1(C)C[C@@H](O)CC2(C)C [violaxanthin] | also showed violaxanthin-neoxanthin tautomerase activity in vitro
